In general, IC50 refers to the concentration at which inhibition is half-maximal. Read a high IC50 as weaker potency.

SHP2, sequence (Q06124 whole entry): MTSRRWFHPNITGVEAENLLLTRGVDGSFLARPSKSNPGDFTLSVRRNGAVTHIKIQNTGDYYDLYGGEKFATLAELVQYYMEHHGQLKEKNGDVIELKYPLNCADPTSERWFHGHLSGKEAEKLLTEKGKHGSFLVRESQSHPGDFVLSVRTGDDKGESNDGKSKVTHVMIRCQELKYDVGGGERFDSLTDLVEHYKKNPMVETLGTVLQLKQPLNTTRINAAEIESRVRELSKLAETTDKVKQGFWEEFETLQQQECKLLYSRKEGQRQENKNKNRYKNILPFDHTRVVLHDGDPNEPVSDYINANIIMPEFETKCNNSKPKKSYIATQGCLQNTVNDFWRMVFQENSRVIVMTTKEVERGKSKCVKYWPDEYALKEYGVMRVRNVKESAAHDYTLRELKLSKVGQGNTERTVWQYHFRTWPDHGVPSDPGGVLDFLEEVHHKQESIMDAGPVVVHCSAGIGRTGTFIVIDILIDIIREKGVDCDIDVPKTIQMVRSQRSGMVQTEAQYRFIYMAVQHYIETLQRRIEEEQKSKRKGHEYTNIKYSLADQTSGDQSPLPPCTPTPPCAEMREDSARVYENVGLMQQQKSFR

This experiment has as its target SHP2 (Homo sapiens (Human), UniProt Q06124). The experiment can be described thus: SHP2 allosteric inhibition assay (DiFMUP prompt fluorescence). Type of experiment: biochemical. To be noted: 0.25 nM SHP2 activated with 0.5 μM peptide IRS1_pY1172(dPEG8)pY1222; substrate DiFMUP.
`N[C@@H]1c2ccccc2CC12CCN(c1cnc(S[C@@H]3CCOC3)cn1)CC2` [Example 235] had an IC50 greater than 10000 nM.

On to `Cn1c(N2CCC3(CC2)Cc2ccccc2[C@H]3N)nc2[nH]nc(Sc3cccc(Cl)c3Cl)c2c1=O` [Example 178], for which the IC50 is greater than 10000 nM. Next, `N[C@@H]1c2ccccc2CC12CCN(C(=O)c1ccccc1Oc1ccccc1)CC2` [Example 292, (3S)-1′-(2-phenoxybenzoyl)-1,3-dihydrospiro[indene-2,4′-piperidin]-3-amine]: greater than 10000 nM; `Cc1nc(N2CCC3(CC2)Cc2ccccc2[C@H]3N)c(C)nc1Sc1ccnc(N)c1Cl` [Example 215]: no more than 50 nM. For `CC(=O)N1CCN(c2n[nH]c3nc(N4CCC5(CC4)Cc4ccccc4[C@H]5N)cnc23)c2ccccc21` [Example 2, 1-(4-{6-[(3S)-3-amino-1,3-dihydrospiro[indene-2,4′-piperidin]-1′-yl]-1H-pyrazolo[3,4-b]pyrazin-3-yl}-1,2,3,4-tetrahydroquinoxalin-1-yl)ethan-1-one], the IC50 was no more than 50 nM. Compound `N[C@@H]1c2ccccc2C[C@]12CC=C(c1cnc3c(N4CCCc5ncccc54)n[nH]c3n1)CC2` [Example 175, (1S,1'S)-4-(3-(3,4-dihydro-1,5-naphthyridin-1(2H)-yl)-1H-pyrazolo[3,4-b]pyrazin-6-yl)-1′,3′-dihydrospiro[cyclohex[3]ene-1,2′-inden]-1′-amine] gave an IC50 of 1000 to 10000 nM.

`Cc1nc2c(N3CCC(F)(F)CC3)n[nH]c2nc1N1CCC2(CC1)Cc1ccccc1[C@H]2N` [Example 186, (3S)-1′-[3-(4,4-difluoropiperidin-1-yl)-5-methyl-1H-pyrazolo[3,4-b]pyrazin-6-yl]-1,3-dihydrospiro[indene-2,4′-piperidin]-3-amine] showed an IC50 of no more than 50 nM.

`Cc1nccc(Oc2n[nH]c3nc(N4CCC5(CC4)Cc4ccccc4[C@H]5N)cnc23)c1Cl` [Example 127]: the IC50 lay in the range of 50 to 1000 nM.

In turn, `Cn1ccc(Sc2cnc(N3CCC4(CC3)Cc3ccccc3[C@H]4N)cn2)c(Cl)c1=O` [Example 132, 4-({5-[(3S)-3-amino-1,3-dihydrospiro[indene-2,4′-piperidin]-1′-yl]pyrazin-2-yl}sulfanyl)-3-chloro-1-methyl-1,2-dihydropyridin-2-one] showed an IC50 of no more than 50 nM. The figure for `N#Cc1ccc2c(c1)N([C@H]1C[C@@H](O)C1)CCN2c1n[nH]c2nc(N3CCC4(CC3)Cc3ccccc3C4N)cnc12` (stereo partly shown) [Example 34] is no more than 50 nM; for `Cc1cc(-c2nccs2)cc(N2CCC3(CC2)Cc2ccccc2[C@H]3N)n1` [Example 270, (S)-1′-(6-methyl-4-(thiazol-2-yl)pyridin-2-yl)-1,3-dihydrospiro[indene-2,4′-piperidin]-1-amine] it is 1000 to 10000 nM; for `CO[C@H]1C[C@H](N2CCN(c3n[nH]c4nc(N5CCC6(CC5)Cc5ccccc5C6N)cnc34)c3ccc(C#N)cc32)C1` (stereo partly shown) [Example 33] it is no more than 50 nM. Next, `N[C@@H]1c2ccccc2CC12CCN(c1ncc(N3CCCCc4ccccc43)nc1CO)CC2` [Example 214, (S)-(3-(1-amino-1,3-dihydrospiro[indene-2,4′-piperidin]-1′-yl)-6-(2,3,4,5-tetrahydro-1H-benzo[b]azepin-1-yl)pyrazin-2-yl)methanol]: no more than 50 nM; `Cn1c(N2CCC3(CC2)Cc2ccccc2[C@H]3N)ncc(Sc2cccc(Cl)c2Cl)c1=O` [Example 242, (S)-2-(1-amino-1,3-dihydrospiro[indene-2,4′-piperidin]-1′-yl)-5-((2,3-dichlorophenyl)thio)-3-methylpyrimidin-4(3H)-one]: no more than 50 nM; `Cn1cc(-c2ccc3c(n2)CCCN3c2n[nH]c3nc(N4CCC5(CC4)Cc4ccccc4[C@H]5N)c(CO)nc23)cn1` [Example 101]: 50 to 1000 nM.

Regarding `N[C@H]1c2ccccc2CC12CCN(c1cnc3c(-c4cccc5ncccc45)n[nH]c3n1)CC2` [Example 69], the concentration for half-maximal inhibition (IC50) was no more than 50 nM. The figure for `N[C@@H]1c2ccccc2CC12CCN(c1cc(C(F)(F)F)c3nncn3n1)CC2` [Example 230] is 1000 to 10000 nM. Next, `N[C@H]1c2ccccc2C[C@]12CC[C@@H](c1cnc(Sc3ccnc(Cl)c3Cl)cn1)CC2` (single isomer, unassigned) [Example 277, (1r, 4r)-4-(5-((2,3-dichloropyridin-4-yl)thio)pyrazin-2-yl)-1′,3′-dihydrospiro[cyclohexane-1,2′-inden]-1′-amine]: 50 to 1000 nM; `N[C@@H]1c2ccccc2CC12CCN(c1ncc(N3CCCc4ccccc43)c(=O)[nH]1)CC2` [Example 210]: greater than 10000 nM. The figure for `COc1ccc2c(n1)[C@@H](N)C1(CCN(c3cnc4c(N5CCCc6ncccc65)n[nH]c4n3)CC1)C2` [Example 106] is no more than 50 nM; for `Nc1nccc(Sc2n[nH]c3nc(N4CCC5(CC4)Cc4ccccc4[C@H]5N)cnc23)c1Cl` [Example 86, (S)-1′-(3-((2-amino-3-chloropyridin-4-yl)thio)-1H-pyrazolo[3,4-b]pyrazin-6-yl)-1,3-dihydrospiro[indene-2,4′-piperidin]-1-amine] it is no more than 50 nM.

The compound `N[C@@H]1c2ccccc2OC12CCN(c1cnc3c(N4CCCc5nc(-c6ncco6)ccc54)n[nH]c3n1)CC2` [Example 61] registered an IC50 of no more than 50 nM. The figure for `N[C@@H]1c2ccccc2CC12CCN(c1cnc3c(Oc4ccnc(Cl)c4Cl)n[nH]c3n1)CC2` [Example 126, (3S)-1′-{3-[(2,3-dichloropyridin-4-yl)oxy]-1H-pyrazolo[3,4-b]pyrazin-6-yl}-1,3-dihydrospiro[indene-2,4′-piperidin]-3-amine] is no more than 50 nM; for `Nc1cc(Sc2cnc(N3CCC4(CC3)Cc3ccccc3[C@H]4N)cn2)c(Cl)c(Cl)n1` [Example 129, (S)-1′-(5-((6-amino-2,3-dichloropyridin-4-yl)thio)pyrazin-2-yl)-1,3-dihydrospiro[indene-2,4′-piperidin]-1-amine] it is no more than 50 nM; for `N[C@H]1c2ccccc2CC12CCN(c1cnc3c(-c4ccncc4F)n[nH]c3n1)CC2` [Example 75] it is no more than 50 nM.

`Cn1ccc2c(c1=O)CCCN2c1n[nH]c2nc(N3CCC4(CC3)Cc3cc(F)ccc3[C@H]4N)cnc12` [Example 52] registered an IC50 of no more than 50 nM.

For `Cc1nc2c(N3CCCc4c3ccn(C)c4=O)n[nH]c2nc1N1CCC2(CC1)Cc1ccccc1[C@H]2N` [Example 247, 1-{6-[(3S)-3-amino-1,3-dihydrospiro[indene-2,4′-piperidin]-1′-yl]-5-methyl-1H-pyrazolo[3,4-b]pyrazin-3-yl}-6-methyl-1,2,3,4,5,6-hexahydro-1,6-naphthyridin-5-one], the IC50 was in the range of 1000 to 10000 nM.

`Nc1nccc(-c2n[nH]c3nc(N4CCC5(CC4)Cc4ccccc4[C@H]5N)cnc23)c1Cl` [Example 79, (3S)-1′-[3-(2-amino-3-chloropyridin-4-yl)-1H-pyrazolo[3,4-b]pyrazin-6-yl]-1,3-dihydrospiro[indene-2,4′-piperidin]-3-amine] had an IC50 of no more than 50 nM. The figure for `N[C@H]1c2ccccc2C[C@]12CC[C@H](c1ccc(Sc3ccnc(Cl)c3Cl)nc1)CC2` [Example 280, (1s,1′R,4S)-4-(6-((2,3-dichloropyridin-4-yl)thio)pyridin-3-yl)-1′,3′-dihydrospiro[cyclohexane-1,2′-inden]-1′-amine] is no more than 50 nM; for `Cc1c(N2CCCc3ccccc32)nc2sc(N3CCC4(CC3)Cc3ccccc3[C@H]4N)nn12` [Example 207] it is 1000 to 10000 nM. Next, `Cc1nc2c(ccn2-c2cccc3ncccc23)nc1N1CCC2(CC1)Cc1ccccc1[C@H]2N` [Example 194, (3S)-1′-[3-methyl-5-(quinolin-5-yl)-5H-pyrrolo[2,3-b]pyrazin-2-yl]-1,3-dihydrospiro[indene-2,4′-piperidin]-3-amine]: no more than 50 nM.

In the case of `N[C@@H]1c2ccccc2CC12CCN(c1nc3[nH]ncc3nc1CO)CC2` [Example 104, (S)-(6-(1-amino-1,3-dihydrospiro[indene-2,4′-piperidin]-1′-yl)-1H-pyrazolo[3,4-b]pyrazin-5-yl)methanol], the IC50 was no more than 50 nM.

Compound `N[C@@H]1c2ccccc2CC12CCN(c1cnc(SC3CC3)cn1)CC2` [Example 241, (S)-1′-(5-(cyclopropylthio)pyrazin-2-yl)-1,3-dihydrospiro[indene-2,4′-piperidin]-1-amine] registered an IC50 of no more than 50 nM. The figure for `N[C@@H]1c2ccccc2CC12CCN(c1cnc(SCc3cccc(Cl)n3)cn1)CC2` [Example 263, (S)-1′-(5-(((6-chloropyridin-2-yl)methyl)thio)pyrazin-2-yl)-1,3-dihydrospiro[indene-2,4′-piperidin]-1-amine] is no more than 50 nM.

Turning to `N[C@@H]1c2ccccc2CC12CCN(c1ncc(SCC3CC3)nc1CO)CC2` [Example 244, (S)-(3-(1-amino-1,3-dihydrospiro[indene-2,4′-piperidin]-1′-yl)-6-((cyclopropylmethyl)thio)pyrazin-2-yl)methanol], the half-inhibitory concentration (IC50) is no more than 50 nM. Next, `CS(=O)(=O)c1cccc2c1CCCN2c1n[nH]c2nc(N3CCC4(CC3)Cc3cccc(F)c3[C@H]4N)cnc12` [Example 59]: no more than 50 nM; `COc1nc(N2CCC3(CC2)Cc2ccccc2[C@H]3N)ncc1Sc1cccc(Cl)c1Cl` [Example 262, (S)-1′-(5-((2,3-dichlorophenyl)thio)-4-methoxypyrimidin-2-yl)-1,3-dihydrospiro[indene-2,4′-piperidin]-1-amine]: 50 to 1000 nM; `CCSc1cnc(N2CCC3(CC2)Cc2ccccc2[C@H]3N)cn1` [Example 170, (3S)-1′-[5-(ethylsulfanyl)pyrazin-2-yl]-1,3-dihydrospiro[indene-2,4′-piperidin]-3-amine]: 50 to 1000 nM. The figure for `N[C@@H]1c2ccccc2O[C@]12C[C@H]1CC[C@@H](C2)N1c1cnc(SCC2CC2)cn1` [Example 274, (1′R,2r,3R,5'S)-8′-(5-((cyclopropylmethyl)thio)pyrazin-2-yl)-3H-8′-azaspiro[benzofuran-2,3′-bicyclo[3.2.1]octan]-3-amine] is 1000 to 10000 nM; for `C[C@@H](O)c1nc(Sc2ccnc(Cl)c2Cl)cnc1N1CCC2(CC1)Cc1ccccc1[C@H]2N` [Example 259, (1R)-1-{3-[(3S)-3-amino-1,3-dihydrospiro[indene-2,4′-piperidin]-1′-yl]-6-[(2,3-dichloropyridin-4-yl)sulfanyl]pyrazin-2-yl}ethan-1-ol] it is no more than 50 nM.

For the origin of these results see patent US10934302B1, “SHP2 phosphatase inhibitors and methods of use thereof” (Relay Therapeutics, Inc., priority 2018, dated 2021).
